For one assay, the target named is JNK (Homo sapiens, UniProt P45983). Kind of assay: Direct target affinity purification (DTAP) from cell lysates. The assay is classed as binding. The conditions noted are these: compound coupled to Sepharose beads. An excerpt: (§1) Direct target affinity purification (DTAP) was used to investigate (1) the selectivity of compounds of the invention for TTK, relative to other kinases, and (2) the importance of a specific methyl substituent in providing that selectivity.
JNK, sequence (P45983 whole entry): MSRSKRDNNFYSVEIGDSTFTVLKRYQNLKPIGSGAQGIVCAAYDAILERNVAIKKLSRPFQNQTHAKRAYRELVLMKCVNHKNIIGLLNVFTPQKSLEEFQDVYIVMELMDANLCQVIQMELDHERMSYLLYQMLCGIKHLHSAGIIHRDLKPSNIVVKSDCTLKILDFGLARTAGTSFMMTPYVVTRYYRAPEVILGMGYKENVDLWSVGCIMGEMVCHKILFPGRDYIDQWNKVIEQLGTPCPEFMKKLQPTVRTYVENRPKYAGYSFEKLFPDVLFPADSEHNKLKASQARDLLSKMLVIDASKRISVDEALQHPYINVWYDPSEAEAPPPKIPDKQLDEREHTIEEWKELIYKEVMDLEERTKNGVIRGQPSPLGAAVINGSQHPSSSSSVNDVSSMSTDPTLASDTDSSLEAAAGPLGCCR
(§2) In preparation for DTAP studies, the two compounds depicted above were synthesized with an alkyl-amine linker to allow covalent coupling to epoxy-activated Sepharose 6B beads (GE Healthcare, Piscataway, N.J.). Sepharose beads were swollen and washed with water for 30 min followed by equilibration in coupling buffer (50% dimethylformamide, 50 mM Na2CO3). Beads were pelleted by centrifugation (15 sec at 2000×g) and the supernatant removed by aspiration. An equal volume of coupling buffer containing the linkered test compound was used to resuspend the beads. Compound concentrations in the coupling reaction ranged from 0.1 mM to 12.5 mM. The coupling reactions were incubated at 34° C. for 18 hrs on a rotator mixer. Ethanolamine was added to 1 M for the final 1 hr to quench the coupling reaction. Beads were washed extensively with binding buffer (1 M NaCl, 50 mM Hepes [pH 7.4], 1% Triton X-100, 1 mM EDTA and 1 mM dithiothreitol) to remove residual coupling reagents, and were then stored at 4° C.
(§3) Cellular proteins were prepared by mild sonication in lysis buffer (150 mM NaCl, 50 mM Hepes [pH 7.4], 1% Triton X-100, 1 mM EDTA and 2 mM dithiothrietol containing 1× Halt™ protease and phosphatase inhibitor cocktail [Thermo Fisher Scientific, Rockford, Ill.]). Lysates were centrifuged (20,000×g for 20 min) to remove debris, diluted to a protein concentration of ˜5 mg/ml, divided into aliquots, and stored at −80° C.
(§4) For DTAP reactions, cell lysates (˜0.5 ml per binding reaction) were thawed and the NaCl concentration adjusted to 1 M. Competitor compounds dissolved in DMSO (or a DMSO control) were then added to the lysate and incubated on ice for 5 min. The lysates were centrifuged at 20,000×g for 10 min and the cleared supernatant was transferred to a tube containing 50 μl of coupled beads. The binding reactions were incubated on a rotator mixer at 4° C. for 2 hrs, after which the beads were pelleted by centrifugation and the supernatant removed by aspiration. The beads were washed three times with 20 volumes of binding buffer, 2× with 20 volumes wash buffer (150 mM NaCl, 50 mM Hepes [pH 7.4], 1% Tween 20, 1 mM EDTA, 2 mM dithiothrietol) and finally twice with 10 volumes of 150 mM NaCl, 50 mM Hepes [pH 7.4].
(§5) During the final wash, an aliquot containing 10 μl of beads was transferred to a separate tube and resuspended with 15 μl of 2× SDS/PAGE loading buffer (Invitrogen Corporation, Carlsbad, Calif.) for 5 min at 90° C. The eluted proteins were resolved by electrophoresis on a NuPage 4-12% Bis-Tris Gel (Invitrogen Corporation, Carlsbad, Calif.) and visualized by staining with Ruby Red (Invitrogen Corporation, Carlsbad, Calif.). The remaining beads (40 μl) were processed for analysis by mass spectrometry.

The target of assay [1] is T1, JAK1 (Homo sapiens, UniProt P23458).
T1 construct: Cellular proteins were prepared by mild sonication in lysis buffer; endogenous in cells
T1 sequence (P23458 whole entry, species assumed): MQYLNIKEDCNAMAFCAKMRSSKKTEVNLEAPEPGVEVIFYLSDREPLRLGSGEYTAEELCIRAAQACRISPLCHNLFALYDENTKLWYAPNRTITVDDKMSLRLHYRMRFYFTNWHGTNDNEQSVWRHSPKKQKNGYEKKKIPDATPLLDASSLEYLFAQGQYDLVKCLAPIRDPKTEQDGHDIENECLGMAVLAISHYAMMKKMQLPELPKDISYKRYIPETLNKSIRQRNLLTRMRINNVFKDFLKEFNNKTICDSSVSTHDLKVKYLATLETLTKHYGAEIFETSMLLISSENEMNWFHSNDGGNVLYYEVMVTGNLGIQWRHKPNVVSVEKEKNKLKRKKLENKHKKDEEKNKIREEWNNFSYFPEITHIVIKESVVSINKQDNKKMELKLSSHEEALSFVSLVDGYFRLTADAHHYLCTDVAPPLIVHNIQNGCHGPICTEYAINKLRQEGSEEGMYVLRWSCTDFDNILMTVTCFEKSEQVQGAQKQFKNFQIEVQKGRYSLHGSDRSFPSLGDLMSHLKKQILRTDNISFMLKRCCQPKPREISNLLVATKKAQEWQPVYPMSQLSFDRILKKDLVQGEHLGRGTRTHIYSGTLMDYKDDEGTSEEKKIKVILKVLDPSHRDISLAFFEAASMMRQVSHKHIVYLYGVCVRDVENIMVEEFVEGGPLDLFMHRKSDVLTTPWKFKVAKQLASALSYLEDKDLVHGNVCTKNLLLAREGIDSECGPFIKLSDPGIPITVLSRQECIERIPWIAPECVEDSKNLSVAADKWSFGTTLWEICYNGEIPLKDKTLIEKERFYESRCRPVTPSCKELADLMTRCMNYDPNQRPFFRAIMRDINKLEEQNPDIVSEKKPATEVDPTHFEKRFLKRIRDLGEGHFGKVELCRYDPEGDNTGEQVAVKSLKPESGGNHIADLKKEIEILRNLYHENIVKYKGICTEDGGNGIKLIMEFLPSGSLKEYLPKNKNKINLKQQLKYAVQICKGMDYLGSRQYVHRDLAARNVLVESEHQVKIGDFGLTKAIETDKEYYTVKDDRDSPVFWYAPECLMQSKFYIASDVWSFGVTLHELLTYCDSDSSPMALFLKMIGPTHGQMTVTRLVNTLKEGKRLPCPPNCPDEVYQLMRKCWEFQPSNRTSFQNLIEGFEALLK
Described as above. The assay is classed as binding. The conditions noted are these: compound coupled to Sepharose beads.
Excerpt: as §1, §2, §3, §4, §5

In assay [2] the target is T2, Aurora A (Homo sapiens, UniProt O14965).
T2 sequence (O14965 1-403): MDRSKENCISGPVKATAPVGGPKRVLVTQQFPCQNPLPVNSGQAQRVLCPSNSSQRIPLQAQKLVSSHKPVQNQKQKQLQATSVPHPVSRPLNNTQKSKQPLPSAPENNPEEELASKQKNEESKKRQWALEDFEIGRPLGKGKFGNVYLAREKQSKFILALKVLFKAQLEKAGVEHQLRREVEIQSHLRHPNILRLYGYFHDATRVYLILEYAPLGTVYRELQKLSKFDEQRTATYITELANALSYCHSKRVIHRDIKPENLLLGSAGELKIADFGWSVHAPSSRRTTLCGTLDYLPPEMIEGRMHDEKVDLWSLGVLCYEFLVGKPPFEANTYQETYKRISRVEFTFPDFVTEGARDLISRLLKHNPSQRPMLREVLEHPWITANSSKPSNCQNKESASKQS
Described as above. It counts as binding. The conditions noted are these: compound coupled to Sepharose beads.
Excerpt: as §1, §2, §3, §4, §5

For a further assay, the target named is T3, TTK (Homo sapiens, UniProt P33981).
T3 sequence (P33981 1-857): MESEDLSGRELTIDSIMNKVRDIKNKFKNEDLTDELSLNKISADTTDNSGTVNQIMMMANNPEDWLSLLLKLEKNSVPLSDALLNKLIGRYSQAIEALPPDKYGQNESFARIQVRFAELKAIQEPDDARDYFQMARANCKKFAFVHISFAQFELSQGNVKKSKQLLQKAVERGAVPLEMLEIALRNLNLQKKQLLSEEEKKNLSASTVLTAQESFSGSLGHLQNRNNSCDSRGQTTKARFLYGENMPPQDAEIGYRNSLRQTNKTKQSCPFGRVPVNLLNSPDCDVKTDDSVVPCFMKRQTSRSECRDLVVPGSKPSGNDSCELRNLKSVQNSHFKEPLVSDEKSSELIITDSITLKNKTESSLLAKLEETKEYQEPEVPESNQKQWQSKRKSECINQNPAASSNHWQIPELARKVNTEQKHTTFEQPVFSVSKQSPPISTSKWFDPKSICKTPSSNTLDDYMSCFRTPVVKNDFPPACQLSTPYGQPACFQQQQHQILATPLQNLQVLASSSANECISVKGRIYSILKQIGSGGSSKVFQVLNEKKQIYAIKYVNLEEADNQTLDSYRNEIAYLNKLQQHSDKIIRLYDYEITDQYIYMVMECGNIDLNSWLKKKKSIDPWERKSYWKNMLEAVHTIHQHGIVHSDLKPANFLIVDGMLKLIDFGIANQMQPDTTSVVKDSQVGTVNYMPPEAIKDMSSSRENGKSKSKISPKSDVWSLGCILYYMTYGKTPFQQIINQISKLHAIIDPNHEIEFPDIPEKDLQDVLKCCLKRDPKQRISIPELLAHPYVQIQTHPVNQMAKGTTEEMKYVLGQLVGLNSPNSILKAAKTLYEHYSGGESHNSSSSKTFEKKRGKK
The assay is described as above. The assay is classed as binding. The conditions noted are these: compound coupled to Sepharose beads.
Excerpt: as §1, §2, §3, §4, §5

Another assay concerns the target FER (Homo sapiens, UniProt P16591). The description is as above. It counts as binding. The conditions noted are these: compound coupled to Sepharose beads.
Excerpt: as §1, §2, §3, §4, §5

For assay [3], the target named is T1, JAK1. The assay can be described thus: In vitro binding assays.
The target in assay [4] is T2, Aurora A. Kind of assay: In vitro binding assays.

Structures are written as SMILES.

FER, sequence (P16591 whole entry, species assumed): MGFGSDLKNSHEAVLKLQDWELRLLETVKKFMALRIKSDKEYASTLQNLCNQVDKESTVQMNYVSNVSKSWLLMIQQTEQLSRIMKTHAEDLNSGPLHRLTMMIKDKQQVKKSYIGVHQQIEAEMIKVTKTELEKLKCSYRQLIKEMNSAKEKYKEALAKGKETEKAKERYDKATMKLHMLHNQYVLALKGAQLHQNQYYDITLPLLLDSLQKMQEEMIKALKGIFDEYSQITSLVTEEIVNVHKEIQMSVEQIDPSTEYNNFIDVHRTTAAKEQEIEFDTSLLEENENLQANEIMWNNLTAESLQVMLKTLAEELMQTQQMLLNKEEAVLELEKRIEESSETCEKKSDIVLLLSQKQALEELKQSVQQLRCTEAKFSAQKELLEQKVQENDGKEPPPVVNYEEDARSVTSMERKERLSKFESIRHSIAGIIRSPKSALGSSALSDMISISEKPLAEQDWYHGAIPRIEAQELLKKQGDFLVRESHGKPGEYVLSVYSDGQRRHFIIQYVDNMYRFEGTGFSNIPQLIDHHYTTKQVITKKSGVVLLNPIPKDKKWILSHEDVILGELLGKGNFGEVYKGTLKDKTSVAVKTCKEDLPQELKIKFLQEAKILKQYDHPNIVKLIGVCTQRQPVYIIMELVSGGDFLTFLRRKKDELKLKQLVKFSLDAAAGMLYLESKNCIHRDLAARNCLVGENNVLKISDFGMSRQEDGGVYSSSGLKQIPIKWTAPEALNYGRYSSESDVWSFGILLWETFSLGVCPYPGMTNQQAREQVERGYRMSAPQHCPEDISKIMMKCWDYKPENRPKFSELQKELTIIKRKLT

In general, IC50 refers to the concentration needed to halve the response being measured. Read a low IC50 as inhibition by little substance. Consider `NCCCOc1ccc(Nc2nc(NC3CCCCC3)c3nc[nH]c3n2)cc1` [N2-[4-(3-aminopropoxy)phenyl]-N-6-cyclohexyl-9H-purine-2,6-diamine], for which the “binding of JNK from cell lysates to bead-coupled compound” value at JNK is “found to bind”. Further, the “binding of JAK1 from cell lysates to bead-coupled compound” value on JAK1 [1] is given as “found to bind”. Also, the “binding of Aurora A from cell lysates to bead-coupled compound” value at Aurora A [2] is given as “found to bind”. For the same molecule, the “binding of TTK from cellular lysates to bead-coupled compound” value at TTK was “high affinity”. Moreover, the “binding of FER from cell lysates to bead-coupled compound” value on FER was “found to bind”. In addition, the IC50 on JAK1 [3] came out at 320 nM; at Aurora A [4] it was 420 nM.

Values taken from US20120122840A1, “COMPOUNDS AND THERAPEUTIC USES THEREOF” (Myrexis, Inc., priority 2009, published 2012).
